EP4327830A1 (priority 2022, dated 2024)

Columns and labels:
HEK293 OATP1B1+ = conditions: for IC50: read-out: IC50_cytotox on OATP1B1 expressing cell line + SE
[1] = biological target: protein phosphatase-1 catalytic subunit (a-Isoform from rabbit, Sigma-Aldrich) (Oryctolagus cuniculus, UniProt P62139); format: biochemical; conditions: read-out: IC50_PPI + SE
HEK293 OATP1B3+ = conditions: for IC50: read-out: IC50_cytotox on OATP1B3 expressing cell line + SE
[2] = test system: type 2A protein phosphatases; conditions: cited from earlier work
[3] = biological target: type 1 protein phosphatase; conditions: cited from earlier work

protein phosphatase-1 catalytic subunit (a-Isoform from rabbit, Sigma-Aldrich), sequence (P62139 whole entry, looked up, canonical isoform): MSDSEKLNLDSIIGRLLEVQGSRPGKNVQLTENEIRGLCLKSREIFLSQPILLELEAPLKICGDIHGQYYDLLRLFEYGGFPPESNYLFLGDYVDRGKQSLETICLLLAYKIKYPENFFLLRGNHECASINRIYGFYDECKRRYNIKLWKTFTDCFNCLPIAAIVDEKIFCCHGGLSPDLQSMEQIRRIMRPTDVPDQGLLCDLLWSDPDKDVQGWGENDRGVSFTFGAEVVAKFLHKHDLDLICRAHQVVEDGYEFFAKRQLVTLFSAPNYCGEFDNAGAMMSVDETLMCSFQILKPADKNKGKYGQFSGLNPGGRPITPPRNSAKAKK

| Compound | Ratio of IC50_Cytotox OATP1B1/ IC50_PPI (HEK293 OATP1B1+) | IC50 (HEK293 OATP1B1+) [nM] | IC50 [1] [nM] | Ratio of IC50_cytotox OATP1B3/ IC50_PPI (HEK293 OATP1B3+) | IC50 (HEK293 OATP1B3+) [nM] | IC50 [2] [nM] | IC50 [3] [nM] |
| --- | --- | --- | --- | --- | --- | --- | --- |
| C#CCOc1ccc(C[C@@H]2NC(=O)[C@@H](C)NC(=O)C(=C)N(C)C(=O)CC[C@H](C(=O)O)NC(=O)[C@@H](C)[C@H](/C=C/C(C)=C/[C@H](C)[C@H](Cc3ccccc3)OC)NC(=O)[C@H](CCCNC(=N)N)NC(=O)C[C@H](C(=O)O)NC2=O)cc1 [MC-(Prtyr)R, cyclo(D-Ala-Prtyr-D-Asp-R-Adda-D-Glu-Mdha)] | 9.79 | 82.2 ± 4.5 | 8.4 ± 5.4 | 4.81 | 40.4 ± 36.6 | – | – |
| microcystin-LR | – | – | – | – | – | 0.04 | 0.03 |
| C=C1C(=O)N[C@H](C)C(=O)N[C@@H](CCCN=[N+]=[N-])C(=O)N[C@@H](C(=O)O)CC(=O)N[C@@H](CCCNC(=N)N)C(=O)N[C@@H](/C=C/C(C)=C/[C@H](C)[C@H](Cc2ccccc2)OC)[C@H](C)C(=O)N[C@@H](C(=O)O)CCC(=O)N1C [MC-(Aznva)R, cyclo(D-Ala-Aznva-D-Asp-R-Adda-D-Glu-Mdha)] | 0.52 | 24.1 ± 11.5 | 46.7 ± 9.2 | 0.58 | 27 ± 1.5 | – | – |
